Source: ChEMBL document CHEMBL1158976, “Efficient Isolation of Glycosidase Inhibitory Stilbene Glycosides from Rheum palmatum” (J Nat Prod, 1991)
Converted amounts (≈) assume the structure as drawn. The source made the active and inactive calls. No cut-off for these calls is given here.

Experiments:
[1] = Inhibition of yeast alpha-glucosidase; design: species or system Saccharomyces cerevisiae
Biomphalaria glabrata = experiment: Molluscicidal activity against Biomphalaria glabrata at 200 ppm; type: functional, organism-based

Compound | IC50 [1] [µg/mL] | Activity (Biomphalaria glabrata)
COc1ccc(/C=C/c2cc(O)cc(O[C@@H]3O[C@H](CO)[C@@H](O)[C@H](O)[C@H]3O)c2)cc1 | 280 (≈ 692 µM) | inactive
COc1ccc(/C=C/c2cc(O)cc(O[C@@H]3O[C@H](CO)[C@@H](O)[C@H](O)[C@H]3O)c2)cc1O [RHAPONTIN] | 600 (≈ 1430 µM) | inactive
